Results on three compounds are retold here after US5180724A, “Carboxamide amino acid heterobicyclic PAF antagonists” (British Bio-Technology Limited, priority 1991, dated 1993).

Test [1] has as its system PAF-induced hypotension in the rat. The test can be described thus: Reversal of PAF-induced hypotension in anaesthetised rats. Format: in vivo, rat (male Sprague-Dawley). The note with it: iv, i.v. bolus during PAF infusion 100 ng/kg/min i.v., mean blood pressure fall of 50 mmHg, read-out: ED50 (dose to cause a 50% reversal of the hypotensive PAF response). How it is done:
(§1) Compounds of general formula I inhibit PAF-induced functions in both the cellular and tissue levels by changing the PAF binding to its specific receptor site. The ability of compounds of general formula I to inhibit the binding of PAF to its specific receptor binding site on human platelet plasma membranes was measured according to Pharmacological Example 1. The ability of compounds of general formula I to reverse the hypotension caused by an infusion of PAF in rats was measured according to Pharmacology Example 2.
Male Sprague-Dawley rats (300-350 gms) were anaesthetised with a mixture of sodium pentobarbitone, 22.5 mg.kg^-1 and thiopental 62.5 mg.kg^-1. Through a midline incision in the neck, the trachea was cannulated and the animals breathed spontaneously. A carotid artery was cannulated for the measurement of blood pressure and this signal was used to trigger a rate meter to measure heart rate. Both jugular veins were cannulated: one for the infusion of PAF and the other for the bolus administration of test compounds.
PAF, 100 ng.kg^-1. min^-1 was infused i.v. until a sustained fall in mean blood pressure of 50 mmHg was achieved. […] The peak of this reversal was measured and the dose to cause a 50% reversal of the hypotensive PAF response (ED50) calculated by straight line interpolation and the results are presented in Table 2. Also presented in Table 2 is the result for a comparative example (N-cyclohexyl-N-methyl 4-(lH-imidazo[4,5-c]pyridin-1-ylmethyl)benzamide. This compound (a PAF antagonist described in EP-A-02606130) is not within the scope of the invention.

Test [2] deals with T1, PAF receptor (specific receptor binding site on human platelet plasma membranes) (Homo sapiens, UniProt P25105).
T1 construct: from tissue; host or cells: human platelets (platelet concentrates from a hospital blood bank), lysed plasma membranes
As to the kind of experiment: Inhibition of 3H-PAF binding to human platelet plasma membrane (receptor binding, filtration). The note with it: 0.5 nM 3H-PAF, 0° C., 1 hour incubation. How it is done:
as §1
The inhibition of ^3 H-PAF binding to human platelet plasma membrane by compounds of general formula I was determined by isotopic labelling and filtration techniques. Platelet concentrates were obtained from a hospital blood bank. These platelet concentrates (500-2500 ml.) were centrifuged at 800 rpm for 10 minutes in a SORVALL RC3B centrifuge to remove the red blood cells present. (The word SORVALL is a trade mark.) The supernatant was subsequently centrifuged at 3,000 rpm in a SORVALL RC3B centrifuge to pellet the platelets present. […]
The assay was conducted by preparing a series of Tris-buffered solutions of the selected antagonist of predetermined concentrations. […] Each washed residue was dried under vacuum on a sampling manifold and placed into vials containing 20 ml of OPTIPHASE MP scintillation fluid and the radioactivity counted in a liquid scintillation counter. […]

T1 sequence (P25105 whole entry): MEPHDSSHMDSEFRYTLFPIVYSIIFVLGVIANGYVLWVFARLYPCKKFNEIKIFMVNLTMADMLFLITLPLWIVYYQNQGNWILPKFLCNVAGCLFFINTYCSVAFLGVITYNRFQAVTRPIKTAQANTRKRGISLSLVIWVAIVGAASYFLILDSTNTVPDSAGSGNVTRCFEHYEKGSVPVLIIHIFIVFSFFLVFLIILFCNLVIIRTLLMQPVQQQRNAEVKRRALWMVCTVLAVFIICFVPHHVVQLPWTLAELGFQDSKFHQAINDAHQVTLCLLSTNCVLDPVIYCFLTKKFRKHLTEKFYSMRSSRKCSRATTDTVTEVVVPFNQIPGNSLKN

As usually defined, the ED50 is the midpoint of the dose-response relation. Broadly, the IC50 is the concentration needed to halve the response being measured. A high value points to a need for much substance. For the compound `CCOC(=O)[C@H](CC(C)C)N(C)C(=O)c1ccc(Cn2c(C)nc3cnccc32)cc1` [2 (B), N-Methyl-N-L-leucinyl ethyl ester 4-(1H-2-methylimidazo[4,5-c]pyridylmethyl)benzamide], the ED50 in test [1] came out at 5 µg/kg. For the same compound, the IC50 in test [2] stood at 0.01 µM.

Turning to `CCOC[C@H](CC(C)C)N(C)C(=O)c1ccc(Cn2c(C)nc3cnccc32)cc1` [3 (B), N-Methyl-N-L-leucinol ethyl ether 4-(lH-2-methylimidazo[4,5-c]pyridylmethyl)benzamide], the median effective dose (ED50) in test [1] worked out at 6 µg/kg.

In the case of `CN(C(=O)c1ccc(Cn2cnc3cnccc32)cc1)C1CCCCC1` [Comparative Example, N-cyclohexyl-N-methyl 4-(lH-imidazo[4,5-c]pyridin-1-ylmethyl)benzamide, reference compound], the ED50 in test [1] is 150 µg/kg. Further, the IC50 in test [2] turned out to be 10 µM.
